Experiment [1] concerns the target T1, GST tagged LXRbeta LBD (ligand binding domain) (Homo sapiens, UniProt P55055).
T1 construct: purchased Invitrogen pv4658.pps
T1 sequence (P55055 222-460 limits assumed): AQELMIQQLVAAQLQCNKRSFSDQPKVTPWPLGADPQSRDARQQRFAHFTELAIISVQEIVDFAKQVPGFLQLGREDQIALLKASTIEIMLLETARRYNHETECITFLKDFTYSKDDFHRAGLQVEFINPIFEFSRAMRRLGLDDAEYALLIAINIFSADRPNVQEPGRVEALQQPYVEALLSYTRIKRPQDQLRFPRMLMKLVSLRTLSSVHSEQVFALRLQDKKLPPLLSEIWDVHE
Nature of the experiment: LanthaScreen TR-FRET Liver X Receptor Coactivator Assay, LXR beta-LBD. The note with it: relative to reference T0901317; for EC50: Inflection Point (potency), co-activator recruitment, read-out: LXR beta IP; for Emax: read-out: LXR beta act @ max dose (%). The format is biochemical. The essentials: (§1)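 TR-FRET signal reflects compound-driven recruitment of a fluorescein-tagged coactivator peptide to the GST-tagged LBD, detected via terbium-labelled anti-GST antibody after incubation at room temperature. Potency given as inflection point; efficacy as Emax versus T0901317.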

For experiment [2], the target named is T2, GST tagged LXRalpha LBD (ligand binding domain) (Homo sapiens, UniProt Q13133).
T2 construct: purchased Invitrogen pv4655
T2 sequence (Q13133 209-447 limits assumed): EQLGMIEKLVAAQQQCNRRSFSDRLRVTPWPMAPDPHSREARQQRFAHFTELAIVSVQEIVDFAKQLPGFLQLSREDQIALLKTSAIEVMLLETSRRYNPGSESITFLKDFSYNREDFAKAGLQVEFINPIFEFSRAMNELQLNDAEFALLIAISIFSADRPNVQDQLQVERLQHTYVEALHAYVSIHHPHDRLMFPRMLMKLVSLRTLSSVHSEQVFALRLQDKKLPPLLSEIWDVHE
Description: LanthaScreen TR-FRET Liver X Receptor Coactivator Assay, LXR alpha-LBD. The following applies: relative to reference T0901317; for EC50 / LXR alpha IP (nM): Inflection Point (potency), co-activator recruitment; for EC50: read-out: LXR alpha IP; for Emax: activity at max dose (efficacy), read-out: LXR alpha act @ max dose (%). The format is biochemical. The essentials:
as §1

The mark [3] stands for this setting: activity at max dose (efficacy).

As to `CC(C)C(O)(C(=O)N1CCC(C2CCN(c3ccc(C(=O)N(C)C)c(F)c3)CC2)CC1)C(F)(F)F` [Example D-2, 2-fluoro-4-{1′-[2-hydroxy-3-methyl-2-(trifluoromethyl)butanoyl]-4,4′-bipiperidin-1-yl}-N,N-dimethylbenzamide], the results for the EC50 in experiment [1] and in experiment [2] were 400 nM and 2770 nM, respectively. Also, the values for the Emax in experiment [1] (setting [3]) and in experiment [2] were 99% and 41%, respectively.

`CN(C)C(=O)c1ccc(N2CCC(C3CCN(C(=O)C4(c5c(F)cccc5Cl)CCCC4)CC3)CC2)cc1Cl` [Example A-82, 2-chloro-4-(1′-{[1-(2-chloro-6-fluorophenyl)cyclopentyl]carbonyl}-4,4′-bipiperidin-1-yl)-N,N-dimethylbenzamide]: the EC50 in experiment [1] turned out to be 7 nM; in experiment [2], 148 nM. The Emax was determined as 107% in experiment [1] (setting [3]) and 58% in experiment [2].

As to `CNC(=O)c1ccc(N2CCC(C3CCN(C(=O)[C@](O)(c4ccccc4)C(F)(F)F)CC3)CC2)cc1Cl` [Example E-62, 2-chloro-N-methyl-4-{1′-[(2R)-3,3,3-trifluoro-2-hydroxy-2-phenylpropanoyl]-4,4′-bipiperidin-1-yl}benzamide], the EC50 stood at 341 nM in experiment [1] and 2060 nM in experiment [2]. The Emax is 99% in experiment [1] (setting [3]) and 33% in experiment [2].

For the compound `CN(C)C(=O)c1ccc(N2CCC(C3CCN(C(=O)C(O)(C(F)(F)F)C(F)(F)F)CC3)CC2)nc1Cl` [Example B-15, 2-chloro-N,N-dimethyl-6-{1′-[3,3,3-trifluoro-2-hydroxy-2-(trifluoromethyl)propanoyl]-4,4′-bipiperidin-1-yl}pyridine-3-carboxamide], the values for the EC50 in experiment [1] and in experiment [2] were 34 nM and 2240 nM, respectively. In addition, the results for the Emax in experiment [1] (setting [3]) and in experiment [2] were 121% and 87%, respectively.

Regarding `COc1cccc([C@](O)(C(=O)N2CCC(C3CCN(c4ccc(C(=O)N(C)C)c(Cl)c4)CC3)CC2)C(F)(F)F)c1` (single isomer, unassigned) [Example A-66], the EC50 came out at 251 nM in experiment [1] and 2480 nM in experiment [2]. Besides, the results for the Emax in experiment [1] (setting [3]) and in experiment [2] were 90% and 21%, respectively.

Take `CN(C)C(=O)c1ccc(N2CCC(C3CCN(C(=O)C(C)(C)c4ccc(Cl)cc4)CC3)CC2)cc1Cl` [Example A-44, 2-chloro-4-{1′-[2-(4-chlorophenyl)-2-methylpropanoyl]-4,4′-bipiperidin-1-yl}-N,N-dimethylbenzamide]: the results for the EC50 in experiment [1] and in experiment [2] were 143 nM and 1980 nM, respectively. Also, the figures for the Emax in experiment [1] (setting [3]) and in experiment [2] were 95% and 22%, respectively.

Regarding `O=C(c1ccc(N2CCC(C3CCN(C(=O)[C@](O)(c4ccccc4)C(F)(F)F)CC3)CC2)cc1Cl)N1CC(F)C1` [Example E-45, (2R)-3-(1′-{3-chloro-4-[(3-fluoroazetidin-1-yl)carbonyl]phenyl}-4,4′-bipiperidin-1-yl)-1,1,1-trifluoro-3-oxo-2-phenylpropan-2-ol], the EC50 in experiment [1] was found to be 414 nM; in experiment [2], 1020 nM. Besides, the Emax in experiment [1] (setting [3]) was 68%; in experiment [2], 12%.

As for `CN(C)C(=O)c1ccc(N2CCC(C3CCN(C(=O)C(C)(C)C(F)(F)F)CC3)CC2)cc1Cl` [Example A-41, 2-chloro-N,N-dimethyl-4-[1′-(3,3,3-trifluoro-2,2-dimethylpropanoyl)-4,4′-bipiperidin-1-yl]benzamide], the results for the EC50 in experiment [1] and in experiment [2] were 84 nM and 3390 nM, respectively. The values for the Emax in experiment [1] (setting [3]) and in experiment [2] were 112% and 71%, respectively.

For the compound `CN(C)C(=O)c1ccc(N2CCC(C3CCN(C(=O)C(F)(F)c4ccc(F)cc4)CC3)CC2)cc1Cl` [Example A-63, 2-chloro-4-{1′-[difluoro(4-fluorophenyl)acetyl]-4,4′-bipiperidin-1-yl}-N,N-dimethylbenzamide], the EC50 came out at 218 nM in experiment [1] and 2880 nM in experiment [2]. The Emax in experiment [1] (setting [3]) was 114%; in experiment [2], 52%.

Regarding `CN(C)C(=O)c1ccc(N2CCC(C3CCN(c4ccccc4C(F)(F)F)CC3)CC2)cc1Cl` [Example A106, 2-chloro-N,N-dimethyl-4-{1′-[2-(trifluoromethyl)phenyl]-4,4′-bipiperidin-1-yl}benzamide], the EC50 in experiment [1] amounted to 526 nM; in experiment [2], 2110 nM. Besides, the values for the Emax in experiment [1] (setting [3]) and in experiment [2] were 91% and 27%, respectively.

For `CC1CCCN1C(=O)c1ccc(N2CCC(C3CCN(C(=O)[C@](O)(c4ccccc4)C(F)(F)F)CC3)CC2)cc1Cl` (stereo partly drawn) [Example E-25, (2R)-3-(1′-{3-chloro-4-[(2-methylpyrrolidin-1-yl)carbonyl]phenyl}-4,4′-bipiperidin-1-yl)-1,1,1-trifluoro-3-oxo-2-phenylpropan-2-ol], the results for the EC50 in experiment [1] and in experiment [2] were 332 nM and 769 nM, respectively. For the same compound, the Emax came to 88% in experiment [1] (setting [3]) and 15% in experiment [2].

Take `CN(C)C(=O)c1ccc(N2CCC(C3CCN(C(=O)C4(C(F)(F)F)CCCCC4)CC3)CC2)cc1Cl` [Example A-27, 2-chloro-N,N-dimethyl-4-(1′-{[1-(trifluoromethyl)cyclohexyl]carbonyl}-4,4′-bipiperidin-1-yl)benzamide]: the EC50 in experiment [1] was 26 nM; in experiment [2], 300 nM. Also, the Emax is 119% in experiment [1] (setting [3]) and 70% in experiment [2].

Regarding `COc1cccc([C@@](O)(C(=O)N2CCC(C3CCN(c4ccc(C(=O)N(C)C)c(Cl)c4)CC3)CC2)C(F)(F)F)c1` (single isomer, unassigned) [Example A-65], the EC50 in experiment [1] was 119 nM; in experiment [2], 2120 nM. In addition, the results for the Emax in experiment [1] (setting [3]) and in experiment [2] were 100% and 19%, respectively.

With `CC(c1ccon1)N(C)C(=O)c1ccc(N2CCC(C3CCN(C(=O)[C@](O)(c4ccccc4)C(F)(F)F)CC3)CC2)cc1Cl` (stereo partly drawn) [Example E-51, 2-chloro-N-(1-isoxazol-3-ylethyl)-N-methyl-4-{1′-[(2R)-3,3,3-trifluoro-2-hydroxy-2-phenylpropanoyl]-4,4′-bipiperidin-1-yl}benzamide], the EC50 in experiment [1] was found to be 145 nM; in experiment [2] it was 1720 nM. In addition, the Emax in experiment [1] (setting [3]) amounted to 62%; in experiment [2], 18%.

As for `C#CC(C)(C)C(=O)N1CCC(C2CCN(c3ccc(C(=O)N(C)C)c(Cl)c3)CC2)CC1` [Example A-11, 2-chloro-4-[1′-(2,2-dimethylbut-3-ynoyl)-4,4′-bipiperidin-1-yl]-N,N-dimethylbenzamide], the EC50 in experiment [1] was found to be 512 nM; in experiment [2], 2100 nM. Moreover, the Emax in experiment [1] (setting [3]) came out at 125%; in experiment [2] it was 62%.

Regarding `Cc1cccc(C(O)(C(=O)N2CCC(C3CCN(c4ccc(C(=O)N(C)C)c(Cl)c4)CC3)CC2)C(F)(F)F)c1` (centres unmarked) [Example A-68, 2-chloro-N,N-dimethyl-4-{1′-[3,3,3-trifluoro-2-hydroxy-2-(3-methylphenyl)propanoyl]-4,4′-bipiperidin-1-yl}benzamide], in experiment [1], the EC50 was 280 nM. For the same compound, the Emax in experiment [1] (setting [3]) is 91%. Further, in experiment [2], the “LXR alpha IP (nM)” value is “NO IP” and the Emax came out at 27%.

As to `CC(C)CC(O)(C(=O)N1CCC(C2CCN(c3ccc(C(=O)N(C)C)c(Cl)c3)CC2)CC1)C(F)(F)F` (centres unmarked) [Example A-5, 2-chloro-4-{1′-[2-hydroxy-4-methyl-2-(trifluoromethyl)pentanoyl]-4,4′-bipiperidin-1-yl}-N,N-dimethylbenzamide], in experiment [1], the EC50 was 51 nM. Besides, the “LXR beta act @ max dose (%)” value in experiment [1] (setting [3]) came to 113%. Besides, in experiment [2], the EC50 was found to be 869 nM and the Emax was found to be 55%.

On to `O=C(NC1CN(C(=O)c2ccc(N3CCC(C4CCN(C(=O)[C@](O)(c5ccccc5)C(F)(F)F)CC4)CC3)cc2Cl)C1)c1ccccc1` [Example E-41, N-{1-[(2-chloro-4-{1′-[(2R)-3,3,3-trifluoro-2-hydroxy-2-phenylpropanoyl]-4,4′-bipiperidin-1-yl}phenyl)carbonyl]azetidin-3-yl}benzamide], for which the results for the EC50 in experiment [1] and in experiment [2] were 118 nM and 1680 nM, respectively. For the same compound, the Emax in experiment [1] (setting [3]) worked out at 74%; in experiment [2] it was 54%.

Turning to `CN(C)C(=O)c1ccc(N2CCC(C3CCN(C(=O)[C@](O)(c4ccccc4)C(F)(F)C(F)(F)F)CC3)CC2)cc1Cl` (single isomer, unassigned) [Example A-20], the figures for the EC50 in experiment [1] and in experiment [2] were 35 nM and 625 nM, respectively. Also, the figures for the Emax in experiment [1] (setting [3]) and in experiment [2] were 146% and 0%, respectively.

As for `CN(C)C(=O)c1ccc(N2CCC(C3CCN(S(=O)(=O)c4ccccc4)CC3)CC2)cc1Cl` [Example A-99, 2-chloro-N,N-dimethyl-4-[1′-(phenylsulfonyl)-4,4′-bipiperidin-1-yl]benzamide], in experiment [1], the EC50 was determined as 496 nM. Further, the Emax in experiment [1] (setting [3]) worked out at 54%. In addition, in experiment [2], the “LXR alpha IP (nM)” value was “NO IP” and the Emax came out at 0%.

(Values after patent publication US20180305332A1, “Bispiperidinyl Derivatives as Liver X Receptor Beta Agonists, Compositions, and Their Use” (Merck Sharp & Dohme Corp., priority 2015, published 2018).)
